From patent US20110117168A1, “METHODS AND COMPOSITIONS FOR SOFT TISSUE REPAIR” (AFFINERGY, INC., priority 2009, published 2011)
Ends that are not written are not given here. spacer = not defined here

How the values were obtained:
HUVECs [1] = test: HUVEC capture and retention on peptide-modified collagen coated 96-well plates ([…]-GLO); assay type: cell-based, human
Description: After washing, 10,000 HUVECs were added per well in serum free medium for 30 min at 37° C. The plates were washed 3 times with PBS containing 2% FBS, and captured cells were detected with […]-GLO (INVITROGEN) using a luminometer and a standard curve. […] For FIG. 21B, the collagen was extracted in gel loading buffer, separated by PAGE, and total protein was stained with SIMPLYBLUE (INVITROGEN). […] Plates with captured HUVECs were prepared as described in FIG. 20A. […]

HUVECs [2] = test: Endothelial cell phenotype and anti-thrombogenic protein expression on peptide-modified collagen; assay type: cell-based, human; settings: HUVECs cultured 24 hours; t-PA and 6-keto Prostaglandin F1a ELISA, flow cytometry
Description: Once immobilized on a vascular graft, endothelial cells must retain their characteristic properties of promoting endothelialization. Therefore, the phenotype, viability, and anti-thrombogenic protein expression profiles were evaluated for endothelial cells in the presence of collagen modified with the endothelial cell binding peptide SEQ ID NO: 4 (generated according to Example 7 using BS^3 reagent). […] Specifically, HUVECs were plated on SEQ ID NO: 4 peptide-modified collagen, collagen with 10 μM free SEQ ID NO: 4 peptide or collagen alone for 24 hours. Flow cytometry was performed using a BD […], and ELISAs were performed according to manufacturers instructions. (FIGS. 22A & 22B). Tissue-type Plasminogen Activator (t-PA) and 6-keto Prostaglandin F1a protein expression levels secreted in this assay are aligned with other reports on cultured HUVECS (Kimura and Yokoi-Hayashi, Biochim Biophys Acta, 1996, 1310:1-4; Merhi-Soussi et al., J Leukoc Biol, 2000, 68:881-9).

HUVECs [3] = test: HUVEC colonization and proliferation on peptide-modified collagen; assay type: cell-based, human; settings: 7,000 HUVECs, 48 hours at 37° C.
Description: In 96-well plates 7,000 HUVECs were plated on peptide-modified soluble collagen or unmodified collagen for 48 hours at 37° C. Plates were removed and washed and the remaining attached cells were detected using […]-GLO on a luminometer.

ECFCs = test: Capture of ECFCs in flow on collagen-coated coverslips (parallel plate flow chamber); assay type: cell-based, human; settings: 2×10^6 ECFC circulated for 2 h at 37° C.
Description: The ability of the collagen modified with endothelial cell binding peptide SEQ ID NO: 4 to capture ECFCs in flow was analyzed as follows. Glass coverslips were coated with unmodified collagen or cell binding peptide modified-collagen and mounted in a polycarbonate parallel plate flow chamber. PBS/10% FBS was circulated through a closed 150 ml system to block the coverslips. Approximately 2×10^6 ECFC were injected into the system and were circulated for 2 h at 37° C. Coverslips were washed in PBS to remove loosely adhering cells, the remaining cells on the coverslips were lysed in CELLTITERGLO (INVITROGEN, CA), and the cells enumerated by luminescence against a standard curve.

HUVECs [4] = test: Retention of HUVECs under shear stress on collagen-coated cover-slips; assay type: cell-based, human
Description: The ability of the collagen modified with endothelial cell binding peptide SEQ ID NO: 4 to retain HUVECs under shear stress was analyzed as follows. Glass cover-slips were coated with peptide conjugated collagen or unmodified collagen and seeded with HUVECs. Coverslips were secured in a polycarbonate slide with six 1 cm diameter wells enabling simultaneous testing of materials. A closed loop peristaltic pump was used to expose the samples to flow conditions for 30 minutes at laminar flow rates up to 12 dynes/cm^2 in PBS containing 2% FBS. The number of cells retained on the cover slip was determined using […]-GLO (INVITROGEN) and a luminometer.

human dermal fibroblasts = test: Fibroblast binding to peptide-modified collagen coated plates ([…]-GLO); assay type: cell-based
Description: The experiment was performed according to the following procedure. Cell-binding peptide (SEQ ID NO: 4) was covalently attached to soluble collagen as described herein at Example 7. 96-well plates were coated with various amounts of unmodified or the peptide-modified collagen (177 μmol peptide/g collagen) over night at 4° C. Unbound collagen was removed and the plates were blocked for 1 h. After washing, 5,000 human dermal fibroblasts were added per well in serum-free medium for 30 min at 37° C. The plates were washed, and bound cells were detected with […]-GLO (PROMEGA) using a luminometer. At 0.0025 μg collagen, fibroblast binding was increased 11-fold for the peptide-modified collagen compared to unmodified collagen (see FIG. 28).

human MSCs = test: Capture of MSCs from a mixed cell population with peptide on CELLECTION magnetic beads; assay type: cell-based; settings: starting mixture 38% IM9, 56% U937, 4% MSC
Text: In this experiment, biotinylated cell binding peptide, SEQ ID NO: 16, was attached to CELLECTION magnetic beads. The CELLECTION beads have streptavidin coupled to a magnetic particle through a DNA linker. Three different cell types, human MSCs, IM-9, and U937 cells were differentially labeled with […] dye and mixed in a ratio such that the MSCs represented ˜4% of the starting cell mixture (the percentage of each cell type in the starting mixture was 38% IM9, 56% U937, and 4% MSC). The cell binding peptide, SEQ ID NO: 16, was biotinylated as described herein at Example 2, as was a general cell binding peptide for use as a control peptide in the experiment. Magnetic particles with no peptide attached, as well as magnetic beads having attached either the cell binding peptide, SEQ ID NO: 16, or the control peptide were tested for their ability to capture human MSCs. The starting cell mixture was incubated with magnetic beads having either attached peptide or no peptide, the beads were washed, and the captured cells were released from the beads by DNase treatment. The cells were measured by flow cytometry histograms shown in 18A-18C. The magnetic beads without peptide captured little or no cells (FIG. 18B). The magnetic beads with attached cell binding peptide SEQ ID NO: 16 captured a cell population that was 96% MSCs (FIG. 18C).

| Substance | HUVECs retained versus unmodified collagen after agitation (HUVECs [1]; 1 hour with agitation in PBS containing 2% FBS) [fold] | increase in cell retention over unmodified collagen (HUVECs [1]; 10,000 HUVECs per well, serum free medium, 30 min at 37° C.) [fold] | endothelial cell phenotype and anti-thrombogenic protein secretion (HUVECs [2]) | HUVEC colonization and proliferation versus unmodified collagen (HUVECs [3]) | cells captured in flow versus unmodified collagen (ECFCs) | cells captured versus unmodified collagen (HUVECs [4]; HUVECs, 30 minutes, laminar flow up to 12 dynes/cm^2) | effect of shear stress on cell capture (HUVECs [4]; laminar flow up to 12 dynes/cm^2, 30 minutes) | fibroblast binding increase compared to unmodified collagen (human dermal fibroblasts; 0.0025 μg collagen, 5,000 human dermal fibroblasts, 30 min at 37° C.) [fold] | fibroblast binding at higher concentrations of collagen (human dermal fibroblasts; data not shown) | MSCs in captured cell population (human MSCs) [%] |
| --- | --- | --- | --- | --- | --- | --- | --- | --- | --- | --- |
| peptide-modified collagen: soluble bovine type I collagen with SEQ ID NO: 4 covalently attached via BS^3 crosslinking reagent (SSFWDVCQGDGTCYGGGSR-{spacer-Lys}; cysteine pairing not given here; reading uncertain; also: conjugated to soluble bovine type I collagen via BS3 (site not given here)) | 7 | 3 | maintained their endothelial cell phenotype and their ability to secrete anti-thrombogenic proteins | colonize and proliferate equally | about 20 fold | about 3 fold | did not significantly affect cell capture | 11 | Increased cell binding | – |
| SSFRFGPLGTWNYPSTDNAE (also: biotin (position not given here)) [SEQ ID NO: 16, tested biotinylated] | – | – | – | – | – | – | – | – | – | 96 |
